# Test results reported in patent publication US12274785B2, “Sustained-release pharmaceutical compositions comprising an immunomodulating agent and uses thereof” (TAIWAN LIPOSOME CO., LTD., priority 2018, dated 2025).
# Counter-ions that a name gives are not always drawn.
# What was measured:
# [1] = Particle size distribution by dynamic light scattering; type: physicochemical
# Procedure: (§1) The encapsulation efficiency was calculated by the drug to lipid molar ratio (D/L) of the fingolimod hydrochloride encapsulated liposomes compared to the nominal D/L of reaction mixture, which was calculated by dividing the concentration of fingolimod hydrochloride by the lipid concentration of empty liposome. The particle size distribution was measured by a dynamic light scattering instrument (Zetasizer Nano-ZS90, Malvern).
# as §1, with “ozanimod” for “fingolimod hydrochloride”
# [2] = Drug loading of liposomes: drug to lipid molar ratio and encapsulation efficiency (UV/Vis); type: physicochemical
# Procedure: (§2) Empty liposomes were prepared by a lipid film hydration-extrusion method. HSPC, cholesterol, and DSPE-PEG2000 (mole percent 59.5/39.6/0.9) were dissolved in chloroform and a thin lipid film was formed by removing the organic solvent under vacuum in a rotary evaporator. The dry lipid film was hydrated in 300 mM ammonium sulfate at 60° C. for 30 min and the empty liposomes were formed with ammonium sulfate encapsulated in the aqueous core. After six freeze-thaw cycles between liquid nitrogen and water at 60° C., the empty liposomes were subsequently extruded ten times through polycarbonate filter membranes with a pore size of 0.2 μm. Unencapsulated ammonium sulfate was removed by dialysis against a 9.4% sucrose solution.
# (§3) A reaction mixture containing 7.8 mg/mL of fingolimod hydrochloride (MedChem Express), 20.7 mM of lipids of empty liposomes and 50 mM histidine buffer (pH 7) was incubated at 60° C. for 15 min. The unencapsulated fingolimod hydrochloride was separated by a Sephadex™ G-50 Fine gel (GE Healthcare) or dialysis bag (Spectrum Labs) against a 9.4% sucrose solution to obtain the liposomal fingolimod formulation. The concentrations of the encapsulated fingolimod hydrochloride and the lipid of the liposomal fingolimod formulation were measured using an ultraviolet/visible (UV/Vis) spectrophotometer to calculate the drug to lipid molar ratio (D/L) of the liposomal fingolimod formulation.
# as §1
# as §2, with “DPPG” for “DSPE-PEG2000”
# as §3, with “7.2” for “7.8”, “ozanimod (DC Chemicals), 20.6” for “fingolimod hydrochloride (MedChem Express), 20.7”, “6.5)” for “7)”, “ozanimod” for “fingolimod hydrochloride”, “ozanimod” for “fingolimod”
# as §1, with “ozanimod” for “fingolimod hydrochloride”
# The liposome formulations were prepared according to Example 1, with the following trapping agents: (1) 75 mM of triethylammonium sucrose octasulfate, (2) 300 mM of ammonium sulfate, (3) 200 mM ammonium phosphate and (4) 7.0 mM of dextran sulfate.
# [3] = Pharmacokinetics study of liposomal fingolimod in rats; type: in vivo, Sprague-Dawley rats; conditions: IV 5 mg/Kg
# Procedure: An in vivo PK evaluation of the liposomal fingolimod formulation was performed using 7- to 8-week-old female Sprague-Dawley rats. The rats were housed in a holding room which operated on a 12-hr light/12-hr dark circadian cycle with free access to water and food.
# The rats were divided into three groups (n=4 in each group), one group received intravenous (IV) injection of 5 mg/Kg of free fingolimod hydrochloride, prepared by dissolving the fingolimod hydrochloride in a 9.4% sucrose solution containing 5% dimethyl sulfoxide with a final concentration of 2.00 mg/mL. The second group received intravenous (IV) injection of 5 mg/Kg of liposomal fingolimod formulation prepared according to Example 1. The third group received subcutaneous (SC) injection of 5 mg/Kg of liposomal fingolimod formulation prepared according to Example 1. Blood samples were collected at 5, 15 min, 1, 2, 4, 8, 24, 48, 72, and 96 hours post-injection. Plasma samples were obtained by centrifugation, kept frozen at -80° C. and analyzed using a noncompartmental analysis model in PKSolver (Comput. Methods Programs Biomed. 2010; 99(3):306-314).
# [4] = Drug loading of liposomes: drug to lipid molar ratio and encapsulation efficiency (UV/Vis); type: physicochemical; conditions: fingolimod; HSPC/cholesterol/DPPG (59.5/39.6/0.9); trapping agent 2: 300 mM ammonium sulfate
# [5] = In vitro release through dialysis bag with fetal bovine serum; type: physicochemical; conditions: fetal bovine serum mixture, PBS pH 7.4 with 0.06N HCl, 37 °C
# Procedure: To setup an in vitro release system, 0.5 mL of liposomal fingolimod formulation prepared according to Example 1 and 0.5 mL of free fingolimod hydrochloride were each mixed with 0.5 mL of fetal bovine serum. The free fingolimod/serum mixture and liposomal fingolimod/serum mixture were placed in separate dialysis bags (Spectra/Pro®6 dialysis membrane, MWCO 50 kDa, Spectrum Labs) and both ends of the dialysis bags were sealed. Each dialysis bag was immersed in 15 mL PBS at pH 7.4, containing 0.06N HCl, in a 50-mL centrifuge tube and incubated at 37±1° C. water bath. At designated time points after incubation (1, 2, 4, 8 and 24 hours), 0.5 mL aliquot from the 15-mL PBS was sampled and 0.5 mL of fresh PBS was added to replenish the sampling aliquot each time. Drug concentrations of the sampling aliquots at each time point were analyzed using HPLC to create the in vitro release profile of the tested formulations.
# [6] = DSPC/cholesterol/DSPE-PEG2000 (59.5/39.6/0.9), trapping agent 4: 7.0 mM dextran sulfate
# [7] = HSPC/cholesterol (60/40), trapping agent 1: 75 mM triethylammonium sucrose octasulfate
# [8] = ozanimod, HSPC/cholesterol/DPPG (59.5/39.6/0.9), trapping agent 2: 300 mM ammonium sulfate
# [9] = DMPC/cholesterol/DSPE-PEG2000 (59.5/40/0.5), trapping agent 2: 300 mM ammonium sulfate
# [10] = DPPC/cholesterol/DSPE-PEG2000 (55.9/38.7/5.4), trapping agent 3: 200 mM ammonium phosphate
# [11] = HSPC/cholesterol/DSPE-PEG2000 (59.5/39.6/0.9), trapping agent 1: 75 mM triethylammonium sucrose octasulfate
# [12] = HSPC/cholesterol/DSPE-PEG2000 (59.5/39.6/0.9), trapping agent 2: 300 mM ammonium sulfate
smiles,measurement,setting,value
"CC(C)Oc1ccc(-c2nc(-c3cccc4c3CC[C@@H]4NCCO)no2)cc1C#N [Ozanimod, ozanimod]",Average Particle Size,[1]; [6],364.2 nm
same,Average Particle Size,[1]; [7],215.2 nm
same,Average Particle Size,[1]; [8],186.7 nm
same,Encapsulation Efficiency,[2]; [6],79%
same,Purified D/L,[2]; [6],0.35 mole/mole
same,Encapsulation Efficiency,[2]; [7],100%
same,Purified D/L,[2]; [7],0.49 mole/mole
same,Encapsulation Efficiency,[2]; [8],100%
same,Purified D/L,[2]; [8],0.87 mole/mole
"CCCCCCCCc1ccc(CCC(N)(CO)CO)cc1 [Fingolimod HCl, fingolimod hydrochloride]",time after which eliminated from the circulation,[3],about 70 hours
same,AUC0-t/AUC0-inf ratio,[3]; 96 hours post-injection,approximately 100%
same,Average Particle Size,[1]; [9],154.5 nm
same,Average Particle Size,[1]; [10],143.1 nm
same,Average Particle Size,[1]; [11],288.0 nm
same,Average Particle Size,[1]; [12],162.1 nm
same,Average Particle Size,"[1]; fingolimod, HSPC/cholesterol/DPPG (59.5/39.6/0.9), trapping agent 2: 300 mM ammonium sulfate",191.4 nm
same,Encapsulation Efficiency,[4],100%
same,Purified D/L,[4],1.01 mole/mole
same,fingolimod released through the dialysis bag within 4 hours,[5]; 4 hours,~80%
same,release through the dialysis bag over 24 hours,[5]; 24 hours,> 80%
same,Encapsulation Efficiency,[2]; [9],100%
same,Purified D/L,[2]; [9],1.13 mole/mole
same,Encapsulation Efficiency,[2]; [10],99%
same,Purified D/L,[2]; [10],0.88 mole/mole
same,Encapsulation Efficiency,[2]; [11],100%
same,Purified D/L,[2]; [11],1.28 mole/mole
same,Encapsulation Efficiency,[2]; [12],100%
same,Purified D/L,[2]; [12],1.11 mole/mole
